Measured values as given in the supplement of paper PMC6045584.

What was measured:
Experiment in all cases: area under dose-response curve of surviving fraction (unscaled, Aref=0) (surviving fraction x log10(nM)); higher = more resistant
Conditions in all cases: exposure time: 5 days; dose range 0.5-1000 nM
MK-1775 = compound: C=CCn1c(=O)c2cnc(Nc3ccc(N4CCN(C)CC4)cc3)nc2n1-c1cccc(C(C)(C)O)n1 [MK-1775]
Method in brief: (§1)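 Each tumour cell line was screened three times in 384-well plates, receiving eight inhibitor concentrations from 0.5 to 1000 nM for five days. CellTiter-Glo luminescence gave viability, normalised to DMSO-only wells. Using the drc R package, surviving fractions were fitted with 3-parameter logistic dose-response curves, and the unscaled activity area over log10 dose (Aref = 0) was taken as the area under the curve.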

AFIMOXIFENE = compound: CC/C(=C(\c1ccc(O)cc1)c1ccc(OCCN(C)C)cc1)c1ccccc1 [AFIMOXIFENE]
Method in brief: as §1

[1] = compound: CCc1cc(Nc2nccc(-c3c(-c4ccc(OC)c(C(=O)Nc5c(F)cccc5F)c4)nc4ccccn34)n2)c(OC)cc1N1CCC(N2CCN(S(C)(=O)=O)CC2)CC1
Method in brief: as §1

CABOZANTINIB = compound: COc1cc2nccc(Oc3ccc(NC(=O)C4(C(=O)Nc5ccc(F)cc5)CC4)cc3)c2cc1OC [CABOZANTINIB]
Method in brief: as §1

LENVATINIB = compound: COc1cc2nccc(Oc3ccc(NC(=O)NC4CC4)c(Cl)c3)c2cc1C(N)=O [LENVATINIB]
Method in brief: as §1

[2] = compound: COc1ccc(-c2cc3c(C)nc(N)nc3n([C@H]3CC[C@H](OCCO)CC3)c2=O)cn1
Method in brief: as §1

[3] = compound: C[C@@H]1CN(CC(=O)Nc2ccc3c(c2)Cc2cccc(-c4cc(=O)cc(N5CCOCC5)o4)c2S3)C[C@H](C)O1
Method in brief: as §1

[4] = compound: C[C@H](CN(C)C)Oc1nc(Nc2cc3cccc(Cl)c3cn2)cnc1C#N
Method in brief: as §1

BLEOMYCIN = compound: Cc1c(N)nc([C@H](CC(N)=O)NC[C@H](N)C(N)=O)nc1C(=O)N[C@H](C(=O)N[C@H](C)[C@@H](O)[C@H](C)C(=O)N[C@H](C(=O)NCCc1nc(-c2nc(C(=O)NCCC[S+](C)C)cs2)cs1)[C@@H](C)O)[C@@H](OC1OC(CO)C(O)C(O)C1OC1OC(CO)C(O)C(OC(N)=O)C1O)c1cnc[nH]1 [BLEOMYCIN]
Method in brief: as §1

IMATINIB = compound: Cc1ccc(NC(=O)c2ccc(CN3CCN(C)CC3)cc2)cc1Nc1nccc(-c2cccnc2)n1 [IMATINIB]
Method in brief: as §1

NILOTINIB = compound: Cc1cn(-c2cc(NC(=O)c3ccc(C)c(Nc4nccc(-c5cccnc5)n4)c3)cc(C(F)(F)F)c2)cn1 [NILOTINIB]
Method in brief: as §1

BEZ-235 = compound: Cn1c(=O)n(-c2ccc(C(C)(C)C#N)cc2)c2c3cc(-c4cnc5ccccc5c4)ccc3ncc21 [BEZ-235]
Method in brief: as §1

BMN-673 = compound: Cn1ncnc1[C@H]1c2n[nH]c(=O)c3cc(F)cc(c23)N[C@@H]1c1ccc(F)cc1 [BMN-673]
Method in brief: as §1

VORINOSTAT = compound: O=C(CCCCCCC(=O)Nc1ccccc1)NO [VORINOSTAT]
Method in brief: as §1

Test System	area under dose-response curve (MK-1775)	area under dose-response curve (AFIMOXIFENE)	area under dose-response curve [1]	area under dose-response curve (CABOZANTINIB)	area under dose-response curve (LENVATINIB)	area under dose-response curve [2]	area under dose-response curve [3]	area under dose-response curve [4]	area under dose-response curve (BLEOMYCIN)	area under dose-response curve (IMATINIB)	area under dose-response curve (NILOTINIB)	area under dose-response curve (BEZ-235)	area under dose-response curve (BMN-673)	area under dose-response curve (VORINOSTAT)
ASKA SYNOVIAL	2.32	3.82	3.91	3.68	3.69	2	3.87	2.79	2.57	3.79	3.26	2.61	1.83	3.14
CAL51 BREAST	2.31	3.36	3.35	3.28	3.18	2.28	3.27	2.73	2.39	3.53	3.22	1.99	1.22	3.06
CAL120 BREAST	2.62	3.29	3.17	3.04	3.14	2.16	3.33	3.04	2.66	3.08	3.5	2.06	2.16	2.69
CASKI CERVIX	2	3.25	3.15	3.03	3.28	1.97	2.98	2.76	1.94	3.28	2.97	1.99	2.72	2.94
CHLA90 AUTONOMIC GANGLIA	2.46	3.42	3.16	2.95	3.23	2.37	3.37	2.86	2.89	3.45	3.5	2.25	2.97	3.28
COLO320DM LARGE INTESTINE	2.44	3.71	3.7	3.68	3.67	2.16	3.46	2.74	3.13	3.72		2.61	2.75	3.04
H23 LUNG	2.55	3.5		3.11	3.58	1.86	3.59	3.29	1.99	3.56	3.78	2.16	2.65	3.81
HCC78 LUNG	2.58	3.19	2.74	1.8	3.39	1.41	3.9	2.74	1.97	3.61		2.2	2.26	2.95
HCT15 LARGE INTESTINE	3.01	3.52	3.39	3.2	3.67	2.38	3.44	3.27	2.34	3.74	3.52	2.4	2.22	3.26
HELA CERVIX	2.7	3.54	3.49	3.33	3.67	2.88	3.72	3.28	3.15	3.58	3.53	3.17	3.22	3.3
HOS BONE	2.77	3.46	3.27	3.24	3.38	2.46	3.29	3.05	3.03	3.43	3.43	2.52	3	3.28
HSSYII SYNOVIAL	2.05	3.31	3.08	2.98	2.64	1.93	3	2.56	2.09	3.24	3.09	2.12	1.15	2.82
HT1080 SOFT TISSUE	2.2	3.48	3.37	3.29	3.31	2.54	3.27	3.08	2.57	3.5	3.28	2.35	1.71	3.01
HU09 BONE	2.34	3.44		2.66	2.42	1.71	3.39	2.89	2.58	2.91	2.76	2.26	2.02	3.08
HUO3N1 BONE	2.77	3.5	3.26	3	3.05	2.24	3.28	3.12	2.94	3.24	3.34	2.58	2.59	3.25
JIMT1 BREAST	2.04	3.34	3.34	3.5	3.41	2.47	3.11	2.3	2.8	3.41	3.15	2.38	2.39	3.11
JURKAT HAEMATOPOIETIC AND LYMPHOID TISSUE	2.46	3.27	3.28	3.38	3.38	2.42	3.48	2.99	2.64	3.38	3.46	2.43	2.15	3.06
LM7 BONE	2.34	3.53	3.23	3.43	3.27	2.32	3.09	3.17	2.46	3.59	3.1	2.77	1.78	3.26

Test System	area under dose-response curve (MK-1775)	area under dose-response curve (AFIMOXIFENE)	area under dose-response curve [1]	area under dose-response curve (CABOZANTINIB)	area under dose-response curve (LENVATINIB)	area under dose-response curve [2]	area under dose-response curve [3]	area under dose-response curve [4]	area under dose-response curve (BLEOMYCIN)	area under dose-response curve (IMATINIB)	area under dose-response curve (NILOTINIB)	area under dose-response curve (BEZ-235)	area under dose-response curve (BMN-673)	area under dose-response curve (VORINOSTAT)
LNCAP PROSTATE	2.42	3.37	2.98	3.11	3.21	1.49	4.03	2.72		3.3	3.62	1.95	1.43	2.63
MCF7 BREAST	2.74	2.96	2.85	2.91	3.12	1.93	3.09	2.75	2.65	3.28	3.12	2.35	2.58	2.74
MDAMB134 BREAST		3.63		3.19	3.62	2.33	2.76	2.31	2.52	3.48	2.75	2.79	3.21	2.92
MDAMB231 BREAST	2.54	3.31	3.23	3.22	3.24	2.27	3.03	3.05	2.82	3.24	2.86	2.28	2.49	3.11
MDAMB361 BREAST	2.29	2.82	3.05	2.85	2.97	2.3	2.33	2.21	2.67	2.84	2.19	2.44	2.66	2.51
MDAMB436 BREAST	2.4	3.33	3.2	3.27	3.2	2.03	2.84	2.74	2.47	3.32	2.98	2.23	1.5	2.84
MHM BONE	3.12	3.46	3.29	3.23	3.4	2.79	3.5	3.43	3.06	3.51	3.6	2.85	3.2	3.28
NY BONE	2.18	3.43		3.07	3.21	2.35	3.49	2.58	2.43		3.51	2.76	2.86	3.06
OS25HAL BONE	2.36	3.51	3.27	3.05	3.19	2.12	3.38	3.06	2.85	3.47	3.17	2.66	2.71	3.21
OSHN BONE	2.85	3.65	3.42	3.22	3.63	2.99	3.42	3.08	2.72	3.71	3.28	3.19	2.4	3.47
PCI30 HEADNECK	2.58	3.49	3.27	3.08	3.61	2.34	3.24	2.74	2.41	3.49		2.54	2.82	3.21
SCC47 HEADNECK	2.55	4.16	3.42	3.26	3.62	2.79	3.53	3.17	2.59	3.94	3.44	2.85		3.47
SIHA CERVIX	2.93	3.74	3.53	3.04	3.63	2.34	3.5	3.45		3.68	3.47	2.36	2.87	3.58
SKBR3 BREAST	2.64	3.71		3.38	3.48	1.77	3.21	3.03	2.72	3.66	2.88	2.41	2.55	3
SUM159 BREAST	3.08	3.67		3.29	3.64	2.51	3.65	3.44	3.01	3.7	3.57	2.52	3.52	3.01
SYO1 SYNOVIAL	2.27	3.24	3.07	2.68	2.56	1.95	3.18	2.54	1.65	3.02	2.99	2.23	0.997	3.02
T47D BREAST	2.97	3.17	3.46	3.4	3.63	2.22	3.37	3.29	2.92	3.66	3.49	2.71	2.5	3.15
U2OS BONE	2.46	3.56	3.38	3.26	3.24	2.54	3.54	2.9	3.02	3.59	3.59	2.68	2.8	3.23
